# Experiments:
# [1] = biological target: T1, mouse Dvl1 PDZ domain (mDvl1 residues 247-341) (Mus musculus, UniProt P51141, C338A); assay: fluorescence polarization competition with Rox-DprC; assay type: binding
# T1 sequence (P51141 247-341 C338A): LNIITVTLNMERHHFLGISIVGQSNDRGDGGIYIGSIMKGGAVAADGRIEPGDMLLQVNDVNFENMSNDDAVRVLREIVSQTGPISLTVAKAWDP
# [2] = biological target: T1, mouse Dvl1 PDZ domain (mDvl1 residues 247-341); assay: […]-HSQC NMR chemical shift titration; assay type: binding
Ki [1],Kd [2],Compound
4.2 ± 0.46 µM,2.27 µM,Cc1ccc(C[C@H](NC(=O)c2cccc(F)c2)C(=O)N[C@@H](CC(C)C)C(=O)O)cc1 [J01-007]
–,1.83 µM,Cc1ccc(C[C@H](NC(=O)c2cccc(C#N)c2)C(=O)N[C@@H](CC(C)C)C(=O)O)cc1 [J01-012]
3.5 ± 0.21 µM,2.96 µM,Cc1ccc(C[C@H](NC(=O)c2cccc(C)c2)C(=O)N[C@@H](CC(C)C)C(=O)O)cc1 [J01-015]
1.5 ± 0.52 µM,–,Cc1ccc(C[C@H](NC(=O)c2cc(C)c(F)c(F)c2)C(=O)N[C@@H](CC(C)C)C(=O)O)cc1 [J01-017a]
–,7.67 µM,CC(C)C[C@H](NC(=O)[C@H](Cc1ccccc1)NC(=O)c1cccc(F)c1)C(=O)O [J02-001]
–,3.49 µM,CC(C)C[C@H](NC(=O)[C@H](Cc1ccccc1)NC(=O)c1ccc(F)cc1)C(=O)O [J02-002]
